The results in this text go back to patent US20240261418A1, “SOS1 DEGRADING AGENT AND PREPARATION METHOD THEREFOR AND APPLICATION THEREOF” (SHANGHAI LEADINGTAC PHARMACEUTICAL CO. LTD., priority 2021, published 2024).

The assay has as its target T1, SOS1 protein (Homo sapiens, UniProt Q07889).
T1 sequence (Q07889 1-1333): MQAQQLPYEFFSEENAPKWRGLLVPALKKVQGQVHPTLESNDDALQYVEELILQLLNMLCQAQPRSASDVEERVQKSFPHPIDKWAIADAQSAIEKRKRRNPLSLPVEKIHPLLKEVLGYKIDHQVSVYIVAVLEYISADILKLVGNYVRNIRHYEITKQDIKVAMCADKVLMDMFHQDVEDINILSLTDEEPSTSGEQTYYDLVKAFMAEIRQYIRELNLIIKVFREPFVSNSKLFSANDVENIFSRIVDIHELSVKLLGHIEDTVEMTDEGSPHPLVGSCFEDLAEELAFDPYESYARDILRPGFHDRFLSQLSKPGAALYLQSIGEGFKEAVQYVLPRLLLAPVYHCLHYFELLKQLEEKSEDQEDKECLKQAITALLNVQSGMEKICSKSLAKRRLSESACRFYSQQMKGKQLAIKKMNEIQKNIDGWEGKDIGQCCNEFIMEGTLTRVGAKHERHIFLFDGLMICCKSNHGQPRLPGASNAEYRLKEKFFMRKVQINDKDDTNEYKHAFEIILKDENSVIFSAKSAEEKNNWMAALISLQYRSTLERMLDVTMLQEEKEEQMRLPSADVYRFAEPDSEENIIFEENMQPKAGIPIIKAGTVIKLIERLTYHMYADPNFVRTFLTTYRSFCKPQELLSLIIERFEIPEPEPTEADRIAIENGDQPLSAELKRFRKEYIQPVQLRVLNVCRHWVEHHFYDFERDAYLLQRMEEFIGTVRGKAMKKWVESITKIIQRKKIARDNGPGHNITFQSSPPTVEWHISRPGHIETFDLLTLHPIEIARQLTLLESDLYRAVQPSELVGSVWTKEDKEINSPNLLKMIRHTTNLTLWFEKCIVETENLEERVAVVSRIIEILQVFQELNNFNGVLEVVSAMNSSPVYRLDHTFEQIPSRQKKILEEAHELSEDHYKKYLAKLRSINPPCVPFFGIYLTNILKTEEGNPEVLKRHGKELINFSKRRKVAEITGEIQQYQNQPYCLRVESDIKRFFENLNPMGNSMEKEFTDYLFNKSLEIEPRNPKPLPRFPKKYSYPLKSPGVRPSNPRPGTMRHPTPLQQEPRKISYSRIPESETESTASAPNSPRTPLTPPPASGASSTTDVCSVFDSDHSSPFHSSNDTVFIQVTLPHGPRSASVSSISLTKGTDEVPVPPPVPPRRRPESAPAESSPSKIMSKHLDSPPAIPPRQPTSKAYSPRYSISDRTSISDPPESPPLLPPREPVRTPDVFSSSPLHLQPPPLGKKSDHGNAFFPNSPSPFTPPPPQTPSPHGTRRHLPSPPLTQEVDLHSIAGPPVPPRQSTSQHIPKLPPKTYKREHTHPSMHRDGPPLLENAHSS
Put plainly: SOS1 degradation assay (Western blot) in NCI-H358 cells. The class given is cell-based. The settings on record: NCI-H358 (KRAS G12C), 24 h. The procedure: The specific procedures were as follows:
0.95 mL of cells were seeded into each well of a 24-well cell culture plate to achieve a cell density of 5×10^5 cells/well; the cell plate was incubated in an incubator at 37° C. with 5% CO2 overnight. Then 50 μL of the compound solution after dilution was added to each of the wells with the corresponding cells, so that the final concentration of the compound was in a range of 0.03-3000 nM.
After dosing, the cell plate was incubated in an incubator at 37° C. with 5% CO2 for 24 h. […] After the plate was left to stand on ice for 30 min, the protein lysate in each well was transferred to a 1.5 mL centrifuge tube and centrifuged at 15000 g for 20 min at 4° C. The cell lysate supernatant after centrifugation was cryopreserved at −80° C. for testing and was used for determining the degradation level of the SOS1 protein by a WB method. The concentration of total protein in the cell lysate supernatant was determined using the BCA Protein Quantification Kit (Tiangen, PA115-02).
The concentration of total protein in the cell lysate was determined by BCA. The total protein was adjusted to 0.5 μg/μL with PBS and 5×SDS- PAGE protein loading buffer (Beyotime, P001L), incubated in a water bath at 100° C. for 15 min, incubated in an ice bath on ice for 5 min, centrifuged at 14000 g for 1 min at 4° C., and mixed well as a loading sample for WB. Protein electrophoresis was performed on a precast gel (KeyGEN, KGMG010W15) with a loading volume of 10 μL (total protein: 5 μg) using a Tris-MOPS-SDS running solution (Adamas, P1598253) at a constant voltage of 120 V for 55 min. After the electrophoresis, the protein on the gel strip was transferred to a PVDF membrane at a constant current of 250 mA for 65 min. After the membrane transfer, the membrane was incubated in 1× QuickBlock blocking buffer (Beyotime, P0235) for 30 min at room temperature. […] The protein map was subjected to gray value analysis by the chemiluminescence imaging system from Clinx. […] Then the degradation rate was calculated by comparing the gray correction value with the gray correction value of the control group. Then nonlinear curve fitting was performed by GraphPad Prism 8 in the logarithmic concentration-inhibition rate to obtain the DC50 and Dmax values of the compounds.

On to `COc1cc2nc(C)nc(N[C@H](C)c3cc(-c4c(Cl)cccc4CN(C)C)cs3)c2cc1[C@H]1CC[C@H](C(=O)N2CCN(CC3CCC4(CC3)CCN(C(=O)c3ccc(Cl)c(N5CCC(=O)NC5=O)c3)CC4)CC2)CC1` [Example 1, 1-(2-chloro-5-(9-((4-((1R,4R)-4-(4-(((R)-1-(4-(2-chloro-6-((dimethylamino)methyl)phenyl)thien-2-yl)ethyl)amino)-7-methoxy-2-methylquinazolin-6-yl)cyclohexane-1-carbonyl)piperazin-1-yl)methyl)-3-azaspiro[5.5]undecane-3-carbonyl)phenyl)dihydropyrimidine-2,4(1H,3H)-dione], for which the 50% degradation concentration (DC50) was below 0.05 µM and the Dmax lay within 80 to 100%.
Taken in the same sequence, the figures for `COc1cc2nc(C)nc(N[C@H](C)c3cc(-c4c(Cl)cccc4CN(C)C)cs3)c2cc1[C@H]1CC[C@H](C(=O)N2CCC(CCOCC3CCN(C(=O)c4ccc(Cl)c(N5CCC(=O)NC5=O)c4)CC3)CC2)CC1` [Example 5, 1-(2-chloro-5-(4-((2-(1-((1R,4R)-4-(4-(((R)-1-(4-(2-chloro-6-((dimethylamino)methyl)phenyl)thien-2-yl)ethyl)amino)-7-methoxy-2-methylquinazolin-6-yl)cyclohexane-1-carbonyl)piperidin-4-yl)ethoxy)methyl)piperidine-1-carbonyl)phenyl)dihydropyrimidine-2,4(1H,3H)-dione] were below 0.05 µM and 80 to 100%.
